Earlier results on 3 compounds are cited in US4749649A, “Microbial Δ1-dehydrogenation process using a scavenger of toxic oxygen” (The Upjohn Company, priority 1983, dated 1988).

For series [1] the following is noted: compared with hydrocortisone and cortisone.
For series [2] the following is noted: compared with hydrocortisone and cortisone. The source holds these as a separate data set.
Series [3] relates to steroid-1-dehydrogenase. As to conditions: Pseudomonas testosteroni; potential toxicity by superoxide and peroxide formation.

`C[C@]12C=CC(=O)C=C1CC[C@@H]1[C@@H]2C(=O)C[C@@]2(C)[C@H]1CC[C@]2(O)C(=O)CO` [prednisone]: the drug-induced salt retention result in series [1] was “less drug-induced salt retention”.

Consider `C[C@]12C=CC(=O)C=C1CC[C@@H]1[C@@H]2[C@@H](O)C[C@@]2(C)[C@H]1CC[C@]2(O)C(=O)CO` [prednisolone], for which the drug-induced salt retention result in series [1] is listed as “less drug-induced salt retention”. In addition, the potency result in series [2] is recorded as “enhanced potency”.

For `C[n+]1c2ccccc2nc2ccccc21` [PMS, phenazinemethosulfate], the “1-dehydrogenase activity in the presence of PMS” value in series [3] is on record as “essentially unaffected”.
